Reference: patent US10111933B2, “Use of growth hormone fragments” (Metabolic Pharmaceuticals Pty Ltd, priority 2011, dated 2018)
Ends that are not written are not given here.

Legend:
[1] = system: fibre disruption at the junction of supraspinatus tendon insertion; experiment: Case study: shoulder tendon; format: in vivo, human; settings: transdermal 600 mcg per dose twice daily, total 30 ml
From the text: The subject was a professional footballer. The athlete incurred some fibre disruption at the junction of supraspinatus tendon insertion. The MRI indicated an area of 1.0 cm within the disruptive pathology. […] Most of the affected area was the muscular portion of the junction. […] The athlete had been restricted in both the range of motion they could employ for the injured site as well as the amount of weight bearing activity they could engage for the area. They had been finding it difficult to abduct the arm at the shoulder joint.
The subject undertook an intervention of AOD9604 (SEQ ID NO: 1) at 600 mcg per dose. They applied one ml twice daily. The transdermal application was at 600 mcg per ml. The total application was 30 ml.

[2] = system: symptoms consistent with Clostridium tetani infection; set-up: species or system human; settings: in vivo, sc
[3] = system: Chondrocytes isolated from articular cartilage; experiment: Chondrocyte culture on collagen type II-coated filter, cartilage tissue formation; format: cell-based, calf; settings: for toxicity to cells as determined by DNA content: 10 or 100 μg/ml, 2 weeks of treatment (3 weeks culture), FIG. 1
Method: Chondrocytes were isolated from articular cartilage obtained aseptically from calf metacarpal-carpal joints and seeded onto collagen type II-coated membrane inserts (Millipore™) (1.5×10^6 cells/12 mm diameter membrane). Chondrocytes were grown in Ham's F-12 supplemented with 5% fetal bovine serum (FBS) under standard culture conditions. After 5 days the serum was increased to 20%. Chondrocytes were then grown in the presence and absence of AOD9604 (SEQ ID NO: 1) (10 or 100 μg/ml) for 2 weeks (total culture time 3 weeks). Fresh AOD was added with each change of media.
The tissue was harvested and digested with papain (Sigma, 40 μg/ml) for 48 h at 65° C. DNA content was determined using the Hoechst 33258 dye binding assay (Polysciences) and fluorometry (excitation 365 nm, emission 458 nm). Proteoglycan content was determined by measuring the amount of sulphated glycosaminoglycans using the dimethylmethylene blue dye binding assay and spectrophotometry (525 nm). Collagen content was determined by measuring the hydroxyproline content of an aliquot of the papain digest hydrolyzed in 6N HCl for 18 h at 110° C. The hydroxyproline content was determined using the chloramine-T/Ehrlich's reagent assay and spectrophotometry (560 nm). The cellularity was quantified by measuring the DNA content using Hoescht 33258 dye binding assay (Polysciences) and fluorometry (excitation 365 nm, emission 458 nm).
All experiments were done three times and each condition was done in triplicate. The data was expressed as mean±SD. […]. Significance was determined using two way ANOVA followed by Tukey's post hoc test when multiple groups were being evaluated. T test was utilized if 2 groups were being compared. Significance was assigned at p values <0.05.

[4] = system: osteoblast and osteoclast formation; settings: cited from earlier work
C2C12 cells [5] = experiment: C2C12 cell proliferation (DNA content); format: cell-based; settings: 10 and 100 μg/ml, 3 days, FIG. 12
Method: C2C12 were grown in monolayer culture in DMEM (high glucose) supplemented with 10% fetal bovine serum under standard cell culture conditions. The cells were passaged at 60-70% confluence. The effect of AOD9604 (SEQ ID NO: 1) on cell proliferation was determined by growing the cells (3000 cells/cm^2) in the absence or presence of AOD9604 (10 and 100 μg/ml) for 3 days. The DNA content was then quantified. The cells were digested by papain and DNA content determined using the Hoechst 33258 dye binding assay (Polysciences) and fluorometry (excitation 365 nm, emission 458 nm).
(§1) The data was expressed as mean±SD. The data was expressed as mean±SD. Significance was determined using two way ANOVA followed by Tukey's post hoc test when multiple groups were being evaluated. T test was utilized if 2 groups were being compared. Significance was assigned at p values <0.05.

C2C12 cells [6] = experiment: C2C12 differentiation into myoblasts (myogenin staining); format: cell-based
Method: C2C12 (2×10^3 cells/cm^2) were grown in DMEM and 10% FBS. Differentiation was induced by replacing growth media with differentiation media which consists of DMEM supplemented with 2% horse serum. The cells were grown in the absence or presence of AOD9604 (10 or 100 μg/ml). The cells were fixed in 4% paraformaldehyde and co-stained for myogenin (a muscle specific muscle marker (transcription factor) 1/250 Tris-Triton X buffer) and Bodipy (cytoplasmic stain, Invitrogen, 1/1000 PBS). The number of cells stained for myogenin were counted in 4 random fields (up to 100 cells/field) (n=4). The percent of cells that stained positively for myogenin was calculated.
as §1

YLRIVQCRSVEGSCGF (cysteine pairing not given here) [AOD9604]
residual pain or discomfort [1]: no residual pain or discomfort | resolution of injury [1]: resolved in three weeks | return to weight bearing activities [1]: returned to full weight bearing activities and rotation activity | subsequent MRI [1]: full integrity had returned to the junctional area | pain [2]: considerably reduced | resolution of symptoms [2]: fully resolved at around day eight | return to activity [2]: resumed full running and moderate weight lifting activity on day eight | proteoglycan content of the tissue ([3]; 100 μg/ml, 3 weeks of culture, FIG. 2): increasing | collagen content of the tissue ([3]; 100 μg/ml, 3 weeks of culture, FIG. 3): increasing | toxicity to cells as determined by DNA content [3]: not toxic | toxicity to cells as determined by DNA content ([3]; listed as AOD): does not have a toxic effect on cells | formation of osteoclasts [4]: without an increase | osteoblast formation [4]: increased | cell proliferation (C2C12 cells [5]): did not affect | cell proliferation (C2C12 cells [5]; listed as AOD): does not enhance myotube Formation or alter cell proliferation | differentiation of C2C12 cells into myoblasts (C2C12 cells [6]; 3 days (72 hours), doses as low as 10 μg/ml, FIG. 10): enhances | differentiation of C2C12 cells into myoblasts (C2C12 cells [6]; 3 days (72 hours), doses as low as 10 μg/ml, FIG. 10, listed as AOD): induces differentiation | differentiation of C2C12 cells into myoblasts (C2C12 cells [6]; after 24 hours of treatment, FIG. 9): induces differentiation
